From patent US20070166710A1, “Methods for inhibiting adipogenesis and for treating type 2 diabetes” (priority 2003, published 2007)
Numbering of substitutions follows the chain as printed.

Assays:
[1] = molecular target: T1, Foxa-2 (transfected) (UniProt P32182); assay: cell_activity
T1 sequence: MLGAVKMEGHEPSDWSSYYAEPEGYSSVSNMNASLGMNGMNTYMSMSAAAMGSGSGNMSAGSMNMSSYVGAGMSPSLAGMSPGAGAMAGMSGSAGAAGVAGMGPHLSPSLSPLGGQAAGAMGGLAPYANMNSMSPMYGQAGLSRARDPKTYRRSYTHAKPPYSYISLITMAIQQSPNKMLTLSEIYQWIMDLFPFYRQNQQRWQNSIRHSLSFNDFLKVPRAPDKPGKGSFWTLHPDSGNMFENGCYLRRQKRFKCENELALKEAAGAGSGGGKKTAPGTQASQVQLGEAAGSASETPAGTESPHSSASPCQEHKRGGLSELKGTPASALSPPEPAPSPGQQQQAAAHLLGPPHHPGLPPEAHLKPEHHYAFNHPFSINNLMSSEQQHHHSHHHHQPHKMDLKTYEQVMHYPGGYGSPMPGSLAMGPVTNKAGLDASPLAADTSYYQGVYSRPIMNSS

[2] = tested on: Foxa-2 activity; assay: Transactivation assay, HepG2 cells transfected with Foxa-2 and pPepck-Luc or p6xCdx-TkLuc; assay type: cell-based, rat; conditions: coincubation, inhibitor 10 μM, insulin 100 nM
Experimental: Transfections and Transactivation assay. HepG2 cells were grown to 60-70% confluence in a 24-well dish and transfected with 50 ng of each reporter gene (p6xCdx-TkLuc or pPEPCK-Luc), pCMV-β-Gal as internal reference and the expression vectors for wildtype or mutant Foxa-1 and Foxa-2 and human Akt1/Akt2 using the transfection reagent Fugene6 (Roche). Cells were grown for 48 hours and luciferase activity was measured using the Luciferase Detection System (Promega). Luciferase was normalized for transfection efficiency by β-galactosidase activity.
To analyze whether Foxa-2 activity is regulated by insulin, HepG2 cells were transfected with a Foxa-2 expression vector and either plasmid pPepck-Luc or p6xCdx-TkLuc that contain a 621 bp promoter framnent of the human PEPCK gene or six Foxa-2 binding sites of the Cdx-2 gene upstream of a minimal promoter and the luciferase gene, respectively.

[3] = tested on: Pepck, G6pc and Igfbp-1; assay: mRNA levels of Foxa-2 target genes in primary hepatocytes (RT-PCR); assay type: cell-based; conditions: inhibitor together with insulin
Experimental: FIGS. 10a-d depict the effect of insulin on Foxa-2 activity. FIG. 10a is a bar graph depicting relative Foxa-2 activity in HepG2 cells transfected with an expression vector for Foxa-2 and […]-Luc (gray bars) or p6xCdx-TkLuc (black bars). Cells were treated with insulin alone or in the presence of Ly294002 or PD98059. FIG. 10b is a bar graph depicting relative Foxa-2 activity in HepG2 cells transfected with p6xCdx-TkLuc and treated with insulin alone or in the presence of Ly294002 or PD98059. […] FIG. 10d is a bar graph depicting relative Foxa-2 activity in HepG2 cells transfected with an expression vector for Foxa-1, Foxa-2, Akt or Akt[…] alone or in combination, using p6xCdx-TkLuc as reporter gene. In all experiments luciferase activity was normalized to β-Gal activity. […] Levels of mRNA were analyzed to determine whether inhibition of Foxa-2 target gene expression by insulin is controlled at a transcriptional or posttranscriptional level. The mRNA levels of Pepck, G6pc and Igfbp-1 in primary hepatocytes that were cultured either in the presence or absence of insulin, PI3-kinase or MAPKK1 inhibitors were measured.

[4] = tested on: Foxa-2; assay: Immunofluorescence of subcellular distribution of endogenous Foxa-2 in HepG2 cells; assay type: cell-based; conditions: inhibitor in the presence of insulin (50 nM)
Experimental: Immunofluorescence microscopy. Cells were fixed for 30 minutes at room temperature with 2% paraformaldehyde. For immunofluorescent detection of Foxa-1 or Foxa-2, fixed cells were incubated with respective polyclonal antibodies (1:100) (Ruiz i Altaba et al. (1993) Mech. Dev. 44: 91-108) overnight at 4° C. After washing, the cells were treated with anti rabbit IgG secondary antibody linked to Alexa Fluor 488 (Molecular Probes). Immunofluorescent staining was visualized using laser-scanning micrsocopy. To determine whether Akt-induced phosporylation of Foxa-2 has an effect on the subcellular distribution of this transcription factor, the following experiment was performed. HepG2 cells were grown to 60% confluency and endogenous Foxa-1 and Foxa-2 proteins were visualized by immunofluorescence after staining with anti Foxa-1 and Foxa-2 antibodies. Cells were either examined in the absence or presence of insulin (50 nM) and/or Ly294002 or PD98059, and after transfection with either Akt1 or Akt2 expression vectors (FIG. 5B). […] Treatment of cells with MAPKK1 inhibitor PD98059 had no effect on insulin stimulated nuclear exclusion of Foxa-2. The subcellular distribution of Foxa-2 in cells that were stimulated with insulin and expressed a dominant negative form of Akt (Akt[…]) were resistant to nuclear exclusion. […]

[5] = molecular target: T2, GST-Foxa-2 (recombinant, from E. coli BL21, pGEX-4T2) (UniProt P32182)
T2 sequence: T1 sequence

[6] = molecular target: T3, GST-Foxa-2T156A (recombinant, from E. coli BL21, pGEX-4T2) (UniProt P32182)
T3 sequence: T1 sequence with T156A

[7] = tested on: Foxa-2 expression; assay: Foxa-2 expression in primary adipocytes from lean wildtype C57B6 mice, semiquantitative RT-PCR; assay type: cell-based; conditions: 60 hours; leptin 100 ng/ml, TNF-α 5 ng/ml, adiponectin 500 ng/ml, glucagon 100 nM, glucose 20 mmol/L
Experimental: (§1) Total RNA was extracted from cells and EBs using Trizol following manufacturer's instructions (Life Technologies, Inc.). […] The cDNAs provided templates for polymerase chain reactions (PCRs) using specific primers at annealing temperatures ranging between 60 and 65° C. in the presence of dNTPs, [α^-32P]dCTP, and Taq DNA polymerase. […] Primary adipocytes were isolated as described by Rodbell (1964) J. Biol. Chem. 239:375-380. […] (1995) J. Cell. Biochem. 58:435-463. The reaction was stopped by spinning through dinonyl […] oil and the radioactivity quantified by scintillation counting. […] (1995) Am. J. Physiol. 268:[…]-[…]. Fatty acid de novo synthesis was analyzed by saponification of total lipids as described by […] et al. (1978) J. […] Incorporation into lipid glycerol was calculated by subtracting fatty acid radioactive label from total lipid radioactive label. Primary adipocytes were isolated from lean wildtype C57B6 mice and cultured in MEM medium (control) or in the presence of insulin (100 nM; 24 hours and 60 hours, respectively) or rosiglitazone (50 μM), WY14,643 (100 μM), dexametason (1 μM), leptin (100 ng/ml), TNF-α (5 ng/ml), adiponectin (500 ng/ml) and glucagons (100 nM) for 60 hours. Gene expression was measured by semiquantitative RT-PCR. Steady state mRNA levels of Hprt were used as a control and indicate that each lane contains similar amounts of mRNA. Reactions were also assayed in the absence of reverse transcriptase, showing that mRNA was not contaminated with genomic DNA.

[8] = tested on: Foxa-2 expression; assay: Foxa-2 expression in primary adipocytes from ob/ob mice, semiquantitative RT-PCR; assay type: cell-based; conditions: 60 hours
Experimental: as §1, with “ob/ob” for “lean wildtype C57B6”, “μM;” for “nM;”, “dexamethason” for “dexametason”, “TNF-α,” for “TNF-α”, “rnRNA.” for “mRNA.”

[9] = tested on: Foxa-2; assay: Nuclear Foxa-2 in perfused livers, immunoblotting; assay type: in vivo, mice; conditions: liver perfusion experiments

Molecule: 6xCdx-TkLuc (six Foxa-2 sites of the Cdx-2 gene)
- activity (fold activation) ([1]; HepG2, decreased by insulin or Akt): 5

Molecule: COc1cccc(-c2cc(=O)c3ccccc3o2)c1N [PD98059, reference compound]
- insulin mediated decrease of Foxa-2 activity [2]: did not influence
- mRNA levels of Pepck, G6pc and Igfbp-1 [3]: significantly reduced
- subcellular localization of endogenous Foxa-2 / insulin stimulated nuclear exclusion [4]: no effect

Molecule: HA-Akt (human Akt1 fused to an N-terminal HA-tag, expressed from pCMV-HA-Akt)
- phosphorylation in an in vitro kinase assay ([gamma-32P]-ATP, autoradiography) [5]: wildtype Foxa-2 was phosphorylated by either Akt or myrAkt
- phosphorylation in an in vitro kinase assay ([gamma-32P]-ATP, autoradiography) [6]: no phosphorylation could be observed using Foxa-2T156A protein as substrate

Molecule: IL6: factor with effects on adipocyte differentiation and metabolism
- De novo expression of Foxa-2 [7]: could not be induced
- Foxa-2 expression [8]: unable to raise

Molecule: PEPCK promoter (621 bp) luciferase reporter
- activity (fold activation) ([1]; HepG2, about 6-fold in FIG. 11c): 5

Molecule: Pref-1 promoter (1.3 kb) luciferase reporter
- activity (fold activation) ([1]; 3T3-L1 luciferase reporter): 6

Molecule: Pref-1 promoter reporter, upstream Foxa element deleted
- activity (% reduction of activity) ([1]; 3T3-L1 luciferase reporter): 50

Molecule: TNF-α
- De novo expression of Foxa-2 [7]: could not be induced
- Foxa-2 expression [8]: unable to raise

Molecule: constitutively active Akt, HA-tagged (pCMV-HA-myrAkt)
- phosphorylation in an in vitro kinase assay ([gamma-32P]-ATP, autoradiography) [5]: wildtype Foxa-2 was phosphorylated by either Akt or myrAkt
- phosphorylation in an in vitro kinase assay ([gamma-32P]-ATP, autoradiography) [6]: no phosphorylation could be observed using Foxa-2T156A protein as substrate

Molecule: glucagon: hormone tested on Foxa-2 expression and nuclear localization
- De novo expression of Foxa-2 [7]: could not be induced
- Foxa-2 expression [8]: unable to raise
- Foxa-2 nuclear localization [9]: does not affect

Molecule: leptin: factor with effects on adipocyte differentiation and metabolism
- De novo expression of Foxa-2 [7]: could not be induced
- Foxa-2 expression [8]: unable to raise

B1: adiponectin: factor with effects on adipocyte differentiation and metabolism (protein, UniProt Q15848 19-244, looked up)
Adiponectin: ETTTQGPGVLLPLPKGACTGWMAGIPGHPGHNGAPGRDGRDGTPGEKGEKGDPGLIGPKGDIGETGVPGAEGPRGFPGIQGRKGEPGEGAYVYRSAFSVGLETYVTIPNMPIRFTKIFYNQQNHYDGSTGKFHCNIPGLYYFAYHITVYMKDVKVSLFKKDKAMLFTYDQYQENNVDQASGSVLLHLEVGDQVWLQVYGEGERNGLYADNDNDSTFTGFLLYHDTN
- De novo expression of Foxa-2 [7]: could not be induced
- Foxa-2 expression [8]: unable to raise
